Measurements reported in patent publication US20090017047A1, “Preparation for the Prevention and Treatment of Stress Conditions as Well as Functional and Organic Disorders of the Nervous System and Metabolic Disorders” (priority 2004, published 2009).
Read-outs that look alike come from different tables or passages of the source.

Columns and labels:
[1] = tested on: NMDA receptors (N-methyl-D-aspartate receptors); settings: opening of the ion channel induced by glutamate
[2] = Pharmacological effect and tolerability of glycine on administration; settings: in vivo
[3] = very low application dosage

effect on the excitatory NMDA receptors [1]: shows an effect as a co-transmitter
uptake into the central nervous system ([3]; application via the mucous membranes, avoiding the first-pass effect): very fast uptake
uptake into the central nervous system [3]: very quick uptake
SMILES: NCC(=O)O [Glycine]
negative effects with other applications of drugs [2]: No negative effects
time until the preparation acts [2]: 5 to 10 min
undesired side-effects [2]: have not been proven
undesired side-effects ([2]; listed as glycine): No undesired side-effects have been established
